Measured values reported in patent US11999727B2 (Tango Therapeutics, Inc., priority 2020, dated 2024).

Key:
[1] = target: T1, PRMT5 (Homo sapiens, UniProt O14744); assay: PRMT5 biochemical IC50 assay with MTA as cofactor; conditions: PRMT5, MTA as cofactor; read-out: MTA IC50
T1 construct: purchased Viva (custom protein)

[2] = target: T1, PRMT5; assay: PRMT5 biochemical IC50 assay with SAM as cofactor; conditions: PRMT5, SAM as cofactor; read-out: SAM IC50
[3] = test system: HAP1 MTAP-deleted cell line; assay: SDMA in-cell western assay, HAP1 MTAP-deleted; assay type: cell-based; conditions: for IC50: Homo sapiens, HAP1, SDMA in-cell western, HAP1 MTAP-deleted, read-out: HAP1 MTAP deleted IC50; for MTAP intact/deleted ratio: IC50 ratio HAP1 MTAP-intact vs HAP1 MTAP-deleted, SDMA in-cell western
In short: (§1)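 Readout: in-cell western detection of SDMA. Cells: HAP1 expressing endogenous MTAP and an MTAP-null HAP1 counterpart. Output: IC50.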

[4] = test system: HAP1 MTAP-intact cell line; assay: SDMA in-cell western assay, HAP1 MTAP-intact; assay type: cell-based; conditions: Homo sapiens, HAP1, SDMA in-cell western, HAP1 MTAP-intact; read-out: MTAP HAP1 intact IC50
In short: as §1

[5] = test system: HAP1 MTAP-deleted cell line; assay: Viability assay, MTAP-deleted cell line; assay type: cell-based; conditions: Homo sapiens, HAP1, viability assay, MTAP-deleted cell line; read-out: HAP1 MTAP deleted viability
Excerpt: Table 1 additionally indicates IC50 values in a viability assay for the MTAP-deleted cell line (column 10), indicating the effect of treatment with compound on cell survival.

[6] = target: T1, PRMT5; assay: PRMT5 biochemical IC50 assay with no cofactor; conditions: PRMT5, no cofactor; read-out: No Cofactor/rel IC50
Excerpt: Table 1 indicates IC50 values (μM) against PRMT5 for exemplary compounds in the presence of SAM as cofactor, with no cofactor, and with MTA as cofactor, respectively (columns 4-6). […] Ki values can be calculated from the IC50 values as described in the Examples section. As detailed in the Examples section, for the assay performed in the presence of SAM, IC50=Ki×1.5 (Ki=IC50/1.5).

T1 sequence (O14744 whole entry): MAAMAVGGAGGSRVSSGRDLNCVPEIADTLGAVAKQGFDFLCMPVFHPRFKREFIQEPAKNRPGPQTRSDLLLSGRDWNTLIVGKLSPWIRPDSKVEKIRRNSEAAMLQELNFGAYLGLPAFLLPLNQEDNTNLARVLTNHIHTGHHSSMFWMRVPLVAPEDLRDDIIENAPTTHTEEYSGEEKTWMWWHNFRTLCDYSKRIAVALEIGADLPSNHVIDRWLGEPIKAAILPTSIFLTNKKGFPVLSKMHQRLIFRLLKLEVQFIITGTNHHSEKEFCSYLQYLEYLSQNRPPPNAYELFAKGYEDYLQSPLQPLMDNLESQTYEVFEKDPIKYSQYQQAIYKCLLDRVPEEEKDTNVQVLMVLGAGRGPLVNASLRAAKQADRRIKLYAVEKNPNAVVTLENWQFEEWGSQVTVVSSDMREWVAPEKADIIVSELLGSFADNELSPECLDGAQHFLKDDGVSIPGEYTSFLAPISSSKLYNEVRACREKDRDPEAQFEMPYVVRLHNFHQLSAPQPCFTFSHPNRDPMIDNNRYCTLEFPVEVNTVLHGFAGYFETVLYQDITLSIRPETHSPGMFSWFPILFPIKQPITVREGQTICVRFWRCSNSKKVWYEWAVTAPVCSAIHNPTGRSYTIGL
T1 sequence (Q9BQA1 whole entry partner): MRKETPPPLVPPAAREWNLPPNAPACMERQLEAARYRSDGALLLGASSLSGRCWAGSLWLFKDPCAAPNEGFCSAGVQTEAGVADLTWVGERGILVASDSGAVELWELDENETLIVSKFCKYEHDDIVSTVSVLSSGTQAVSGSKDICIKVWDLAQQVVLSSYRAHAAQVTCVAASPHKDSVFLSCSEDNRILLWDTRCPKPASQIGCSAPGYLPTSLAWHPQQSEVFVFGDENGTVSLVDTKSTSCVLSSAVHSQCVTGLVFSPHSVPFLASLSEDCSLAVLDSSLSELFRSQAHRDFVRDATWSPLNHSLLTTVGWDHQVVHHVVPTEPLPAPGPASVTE

Row | SMILES | IC50 [1] | IC50 [2] | IC50 [3] | IC50 [4] | IC50 [6] | MTAP intact/deleted ratio [3] | IC50 [5]
1 | Cc1cc(NC(=O)C(=O)N2C[C@H](C)CC[C@H]2c2ccc3scc(CCN(C)C)c3c2)cnc1N (racemic) [Compound 1142, N-(6-amino-5-methyl-3-pyridyl)-2-[(2S,5R)-2-[3-[2-(dimethylamino)ethyl]benzothiophen-5-yl]-5-methyl-1-piperidyl]-2-oxo-acetamide] | < 50 nM | 50 to 500 nM | < 100 nM | < 100 nM | 50 to 500 nM | B (an IC50 ratio greater than or equal to 3 fold but lower than 10 fold) | < 1000 nM
2 | CCc1cc(NC(=O)C(=O)N2C[C@@H](C)CC[C@@H]2c2ccc(N3CCN(C(C)C)CC3)c(C)c2)cnc1N (racemic) [Compound 1163, N-(6-Amino-5-ethyl-3-pyridyl)-2-oxo-2-[rac-(2R,5S)-2-[4-(4-isopropylpiperazin-1-yl)-3-methyl-phenyl]-5-methyl-1-piperidyl]acetamide] | < 50 nM | < 50 nM | < 100 nM | 100 to 1000 nM | < 50 nM | A (an IC50 ratio greater than or equal to 10 fold) | < 1000 nM
3 | CCc1cc(NC(=O)C(=O)N2C[C@@H](C)CC[C@@H]2c2ccc(N3C[C@H]4CCN(C)C[C@H]4C3)cc2)cnc1N (racemic) [Compound 1167, N-(6-amino-5-ethyl-3-pyridyl)-2-oxo-2-[rac-(2R,5S)-5-methyl-2-[4-[rac-(3aS,7aS)-5-methyl-3,3a,4,6,7,7a-hexahydro-1H-pyrrolo[3,4-c]pyridin-2-yl]phenyl]-1-piperidyl]acetamide] | < 50 nM | < 50 nM | < 100 nM | 100 to 1000 nM | < 50 nM | A (an IC50 ratio greater than or equal to 10 fold) | < 1000 nM
4 | COc1ncc(NC(=O)C(=O)N2C[C@@H](C)CC[C@@H]2c2ccc3sc([C@H]4CCN(C)C[C@@H]4C)nc3c2)cc1C(N)=O (racemic) [Compound 1168, 2-methoxy-5-[[2-oxo-2-[rac-(2R,5S)-5-methyl-2-[2-[rac-(3R,4S)-1,3-dimethyl-4-piperidyl]-1,3-benzothiazol-5-yl]-1-piperidyl]acetyl]amino]pyridine-3-carboxamide] | < 50 nM | < 50 nM | < 100 nM | < 100 nM | < 50 nM | A (an IC50 ratio greater than or equal to 10 fold) | < 1000 nM
5 | CCc1cc(NC(=O)C(=O)N2C[C@@H](C)[C@H](OC)C[C@@H]2c2cccc(OCCN(C)C)c2)cnc1N (racemic) [Compound 1172, N-(6-amino-5-ethyl-3-pyridyl)-2-oxo-2-[rac-(2R,4R,5R)-2-[3-[2-(dimethylamino)ethoxy]phenyl]-4-methoxy-5-methyl-1-piperidyl]acetamide] | < 50 nM | 50 to 500 nM | < 100 nM | 100 to 1000 nM | 50 to 500 nM | A (an IC50 ratio greater than or equal to 10 fold) | < 1000 nM
6 | CCc1nc2cc([C@@H]3CC[C@@H](C)CN3C(=O)C(=O)Nc3cnc(N)c(C)c3)ccc2s1 (racemic) [Compound 1184, N-(6-amino-5-methylpyridin-3-yl)-2-(2-(2-ethylbenzo[d]thiazol-5-yl)-5-methylpiperidin-1-yl)-2-oxoacetamide] | 50 to 500 nM | 50 to 500 nM | < 100 nM | 100 to 1000 nM | 50 to 500 nM | A (an IC50 ratio greater than or equal to 10 fold) | < 1000 nM
7 | Cc1cc(NC(=O)C(=O)N2C[C@H](C)CC[C@H]2c2ccc(CCN(C)C)cc2)cnc1N (racemic) [Compound 1233, N-(6-amino-5-methyl-3-pyridyl)-2-[2-[4-[2-(dimethylamino)ethyl]phenyl]-5-methyl-1-piperidyl]-2-oxo-acetamide] | < 50 nM | 50 to 500 nM | < 100 nM | 100 to 1000 nM | 50 to 500 nM | B (an IC50 ratio greater than or equal to 3 fold but lower than 10 fold) | < 1000 nM

Now from value to compound, other results behind:

Row | IC50 [1] | IC50 [2] | IC50 [3] | IC50 [4] | IC50 [6] | SMILES | MTAP intact/deleted ratio [3] | IC50 [5]
8 | < 50 nM | 50 to 500 nM | < 100 nM | 100 to 1000 nM | 50 to 500 nM | Cc1cc(NC(=O)C(=O)N2C[C@H](C)CC[C@H]2c2cccc(C3CCN(C)CC3)c2)cnc1N (racemic) [Compound 1149, N-(6-amino-5-methylpyridin-3-yl)-2-(5-methyl-2-(3-(1-methylpiperidin-4-yl)phenyl)piperidin-1-yl)-2-oxoacetamide] | A (an IC50 ratio greater than or equal to 10 fold) | < 1000 nM
9 | < 50 nM | < 50 nM | < 100 nM | < 100 nM | < 50 nM | COc1ncc(NC(=O)C(=O)N2C[C@@H](C)CC[C@@H]2c2ccc3sc([C@H]4CCN(C)C[C@H]4C)nc3c2)cc1C(N)=O (racemic) [Compound 1185, 2-methoxy-5-[[2-oxo-2-[rac-(2R,5S)-5-methyl-2-[2-[rac-(3S,4S)-1,3-dimethyl-4-piperidyl]-1,3-benzothiazol-5-yl]-1-piperidyl]acetyl]amino]pyridine-3-carboxamide] | A (an IC50 ratio greater than or equal to 10 fold) | < 1000 nM
10 | < 50 nM | 50 to 500 nM | < 100 nM | 100 to 1000 nM | 50 to 500 nM | CCc1cc(NC(=O)C(=O)N2C[C@@H](C)CC[C@@H]2c2ccc(N3CCN(C)CC3)cc2)cnc1N (racemic) [Compound 1209, rac-N-(6-Amino-5-ethyl-3-pyridyl)-2-[(2S,5R)-5-methyl-2-[4-(4-methylpiperazin-1-yl)phenyl]-1-piperidyl]-2-oxo-acetamide] | A (an IC50 ratio greater than or equal to 10 fold) | < 1000 nM
11 | < 50 nM | 50 to 500 nM | < 100 nM | 100 to 1000 nM | 50 to 500 nM | Cc1cc(NC(=O)C(=O)N2C[C@H](C)CC[C@H]2c2cccc(N3CCN(C)CC3)c2)cnc1N (racemic) [Compound 1223, N-(6-amino-5-methylpyridin-3-yl)-2-(5-methyl-2-(3-(4-methylpiperazin-1-yl)phenyl)piperidin-1-yl)-2-oxoacetamide] | A (an IC50 ratio greater than or equal to 10 fold) | < 1000 nM
12 | < 50 nM | < 50 nM | < 100 nM | < 100 nM | < 50 nM | CCc1cc(NC(=O)C(=O)N2CC(C)CCC2c2ccc3sc(C4CCN(C)CC4C)nc3c2)cnc1N (racemic) [Compound 1227, N-(6-amino-5-ethyl-3-pyridyl)-2-oxo-2-[rac-(2R,5S)-5-methyl-2-[2-[rac-(3S,4R)-1,3-dimethyl-4-piperidyl]-1,3-benzothiazol-5-yl]-1-piperidyl]acetamide] | A (an IC50 ratio greater than or equal to 10 fold) | < 1000 nM
